The test system of one assay is Mäuse (ChbI: NMRI). Description: Hypoxia tolerance: survival of mice in a closed chamber (96,5 % N2, 3,5 % O2). It counts as in vivo. The conditions noted are these: given 24 h, 16 h and 30 min before test, 10 mice per group. An excerpt: 1. HYPOXIE-TOLERANZ, d.h. bei der Prüfung der überlebensfähigkeit von Tieren in einer geschlossenen Kammer.
Eine aus Plexiglas hergestellte, durchsichtige, mit einem Deckel verschließbare Kammer (28 cm x 40 cm x 20 cm; Gesamtvolumen 22,4 1) ist in 2 Hälften geteilt, in die je 10 männliche oder weibliche Mäuse (ChbI: NMRI; 20-25 g Körpergewicht) gesetzt werden. Die Kammer wird mit einem Gasgemisch, bestehend aus 96,5 % N2 und 3,5 % 02 durchströmt; das Strömungsvolumen beträgt 12 1/min.
Eine der beiden Gruppen erhält Prüfsubstanzen, die andere das Vehikel (0,5 % Tylose), die 24 h, 16 h und 30 min vor dem Test oral appliziert werden. Etwa 6-7 min nach Beginn der Durchströmung der Kammer sterben die ersten Tiere. Das Experiment wird beendet, wenn in der Kontrollgruppe nur noch 2-3 Tiere Zeichen von Leben zeigen.
Ohne die Tiere zu berühren, wird 15 min gewartet und dann die Zahl der überlebenden Tiere in den beiden Hälften der Kammern endgültig festgestellt. Die statistische Signifikanz der Differenz der überlebenden Tiere in beiden Gruppen kann mit dem "Exakten Test von Fisher für 2 x 2 Feldertafeln" festgestellt werden.

The test system of another assay is Mäuse (ChbI:NMRI). Description: Scopolamine test: passive avoidance in mice. It counts as in vivo. The conditions noted are these: per os, scopolamine hydrobromide 0,6 mg/kg s.c., test 1 h after dosing. An excerpt:
Durch den cholinerg-muskarinen Antagonisten Scopolamin wird bei Mensch und Tier eine vorübergehende Störung des übergangs von Inhalten des Kurzzeitgedächtnisses in das Langzeitgedächtnis hervorgerufen. Die auch klinisch bei gesunden Probanden durch Scopolamin auslösbaren, mnestischen Störungen sind in ihrer Ausprägung den psychopathologischen Veränderungen bei Patienten mit organischem Hirnsyndrom ähnlich (Drachman & Leavitt, 1974).
Der Scopolamin-Test wird an Gruppen von jeweils 10 männlichen, nicht nüchternen, naiven Mäusen (ChbI:NMRI: Körpergewicht 35 g) mit Hilfe einer passiven Vermeidereaktion durchgeführt. Das Testgerät besteht aus einer Skinner Box (30 cm x 26 cm x 29 cm) mit einem elektrifizierbaren Gitterboden und einer Plastikplattform (5 cm x 5 cm) an einer Seitenwand. Die Tiere werden einzeln in die Skinner Box gesetzt. Nach einer Orientierungsperiode von 30 sec werden kurze, unterbrochene Stromstöße von ca. 0,8 mA so oft an den Gitterboden der Box gelegt, bis das Tier gelernt hat, daß das Aufsuchen und Verweilen auf der Plastikplattform vor dem Stromstoß Sicherheit gewährt. Tiere, welche dies innerhalb von 120 sec nicht lernen, werden nicht weiter verwendet. Die anderen Mäuse werden unmittelbar nach Erlernen der passiven Vermeidereaktion in drei Gruppen (10 Tiere pro Gruppe) eingeteilt. Eine Gruppe erhält Scopolaminhydrobromid (0,6 mg/kg s.c.) und oral Vehikel (0,5 % Tylose); die zweite Gruppe Scopolaminhydrobromid sowie die zu testende Substanz per os in 0,5 % Tylose und die dritte Gruppe lediglich 0,5 % Tylose p.o.. Eine Stunde nach Applikation wird jedes Tier einzeln auf die Plattform gesetzt, um das Erinnerungsvermögen an die erlernte Vermeidereaktion zu prüfen. Das Kriterium besteht in der Bestimmung, ob die Maus während mindestens 60 sec auf der Plattform verbleibt (Ja-Antwort) oder nicht (Nein-Antwort).
Etwa 75 % der Tiere, welche ausschließlich mit 0,5 % Tylose behandelt wurden, verbleiben bei der abschließenden Prüfung länger als 60 sec auf der Plattform: ein Ergebnis, welches als Ausdruck des guten Erinnerungsvermögens an die erlernte Erfahrung gedeutet werden kann. Nach Gabe von Scopolamin und Tylose verbleiben durchschnittlich etwa 25 % der Tiere auf der Plattform; dies zeigt die erhebliche Beeinträchtigung des Erinnerungsvermögens nach Gabe von Scopolamin.

Structures are written as SMILES. Several values for one entry are separate records, joined by “and”; a condition that tells them apart may be missing. Equal values may be shown once.

Regarding `C[C@H](NC(=O)[C@H](Cc1ccccc1)SCOC(=O)C(C)(C)C)C(=O)N1CCC[C@H]1C(=O)OCOC(=O)C(C)(C)C` [Verbindung 1, N-[N-(3-Phenyl-2-S-pivaloyloxymethylmercapto-propanoyl)-S-alanyl]-S-prolin-pivaloyloxymethylester], the “Behandelte Tiere Überlebende %” value is given as 100% with Mäuse (ChbI: NMRI) (10 mg/kg p.o.) and 80% with Mäuse (ChbI: NMRI) (30 mg/kg p.o.). The “%der Tiere bei welcher die Scopol-amin-Wirkung anta-gonisiert wurde” value with Mäuse (ChbI:NMRI) (Dosis 5 (unit not given)) is 80% and 40%; with Mäuse (ChbI:NMRI) (Dosis 10 (unit not given)) it was 40% and 30%; with Mäuse (ChbI:NMRI) (Dosis 20 (unit not given)) it was 40%; with Mäuse (ChbI:NMRI) (Dosis 30 (unit not given)), 40%.

In the case of `C[C@H](NC(=O)[C@H](Cc1ccccc1)SC(=O)c1ccccc1)C(=O)N1CCC[C@H]1C(=O)O` [Verbindung 2, N-[N-(3-Phenyl-2-S-benzoylmercaptopropanoyl)-S-alanyl]-S-prolin], in the assay on Mäuse (ChbI: NMRI) (30 mg/kg p.o.), the “Behandelte Tiere Überlebende %” value is 60%. Also, the “%der Tiere bei welcher die Scopol-amin-Wirkung anta-gonisiert wurde” value in the assay on Mäuse (ChbI:NMRI) (Dosis 1 (unit not given)) is 30%; in the assay on Mäuse (ChbI:NMRI) (Dosis 5 (unit not given)), 50%; with Mäuse (ChbI:NMRI) (Dosis 10 (unit not given)), 50% and 30%.

On to `CC(=O)S[C@@H](Cc1ccccc1)C(=O)N[C@@H](C)C(=O)N1CCC[C@H]1C(=O)OCOC(=O)C(C)(C)C` [Verbindung 3, N-[N-(3-Phenyl-2-S-acetylmercaptopropanoyl)-S-alanyl]-S-prolin-pivaloyloxymethylester], for which the “Behandelte Tiere Überlebende %” value with Mäuse (ChbI: NMRI) (10 mg/kg p.o.) was 50%; with Mäuse (ChbI: NMRI) (30 mg/kg p.o.), 30%; in the assay with Mäuse (ChbI: NMRI) (50 mg/kg p.o.), 80% and 100%. The “%der Tiere bei welcher die Scopol-amin-Wirkung anta-gonisiert wurde” value with Mäuse (ChbI:NMRI) (Dosis 0,5 (unit not given)) is 40%; in the assay on Mäuse (ChbI:NMRI) (Dosis 1 (unit not given)), 60%; with Mäuse (ChbI:NMRI) (Dosis 5 (unit not given)), 40%; in the assay on Mäuse (ChbI:NMRI) (Dosis 10 (unit not given)), 40% and 80%.

For the molecule `C[C@H](NC(=O)[C@@H](S)Cc1ccccc1)C(=O)N1CCC[C@H]1C(=O)OCOC(=O)C(C)(C)C` [Verbindung 4, N-[N-(3-Phenyl-2-S-mercaptopropanoyl)-S-alanyl]-S-prolin-pivaloyloxymethylester], the “Behandelte Tiere Überlebende %” value in the assay on Mäuse (ChbI: NMRI) (10 mg/kg p.o.) was 90%; in the assay with Mäuse (ChbI: NMRI) (30 mg/kg p.o.), 30%; in the assay with Mäuse (ChbI: NMRI) (50 mg/kg p.o.), 70% and 100%.

Source of the values: patent publication EP0230922A2, “Use of peptides in the preparation of agents for the treatment of coronary diseases or organic brain syndrome” (BOEHRINGER INGELHEIM KG, priority 1986, dated 1987).
